Assay results taken from US7033593B2, “Immunogen comprising an HIV envelope protein, a ligand and H2 peptide” (priority 2000, dated 2006).
Entries after “also recorded” stand apart in the source; their conditions may differ.

Columns and labels:
[1] = test system: T8-gp140 (HIV 89.6 gp140); details: SPR
Method: FIG. 14A. […] FIGS. 14B and 14C. […] After stabilization of gp140 capture, either the 19b (anti-gp120 V3) or 2F5 (anti-gp41) antibodies (300 μg/ml) were injected to assess the relative amounts of gp120 and gp41 on both surfaces. FIGS. 14D–14F.
A blank chip served as an in-line reference surface for subtraction of non-specific binding and bulk responses.
Surface Plasmon Resonance Biosensor Measurements. SPR biosensor measurements were determined on a BIACORE 3000 (BIACORE Inc., Uppsala, Sweden) instrument. […] A blank in-line reference surface (activated and de-activated for amine coupling) was used to subtract non-specific or bulk responses. Binding of proteins and peptides (biotinylated or free DP178, T649Q26L, DP178-scrambled) was monitored in real-time at 25° C. with a continuous flow of PBS (150 mM NaCl, 0.005% surfactant p20), pH 7.4 at 10–30 μl/min. Analyte (proteins and peptides) were removed and the sensor surfaces were regenerated following each cycle of binding by single or duplicate 5–10 μl pulses of regeneration solution (10 mM glycine-HCl, pH 2.5 or 10 mM NaOH).

recombinant ADA gp41 = test: SPR binding of HR-2 peptide to immobilized recombinant gp41; set-up: species or system HIV ADA
Method: FIGS. 16A–16F show constitutive binding of HR-2 peptides to immobilized gp41 and CD4 induced binding to gp140. FIGS. 16A and 16B. Binding of DP178 (12.5 to 100 μg/ml) to immobilized ADA gp41 and CD4-gp140 (FIG. 16B) surfaces. FIGS. 16C and 16D. […] FIGS. 16E and 16F. Scatchard plots of RU vs RU/C for DP178 binding to gp41 (FIG. 16E) and to CD4-gp140 (FIG. 16F). Data are representative of 2 separate experiments.
Binding of HR-2 peptide to recombinant gp41. To directly determine if HR-2 peptides can constitutively bind to purified gp41, recombinant ADA gp41 was immobilized to a sensor surface and the binding of HR-2 peptide, DP178, determined. […] To compare the binding of DP178 HR-2 peptide to recombinant gp41 versus HIV 89.6 gp140-sCD4 complex, the equilibrium binding contants (Keq) of HR-2 binding to both were measured. While the Keq of DP178 binding to recombinant gp41 was weak at 26.7 μM (FIG. 16E), the Keq of DP178 binding to sCD4-gp140 was 10 fold stronger at 1.7 μM (FIG. 16F).

[2] = target: T8-gp120 (HIV 89.6 gp120) (Human immunodeficiency virus type 1 group M subtype B, UniProt Q73372); type: binding; details: SPR
T8-gp120 (HIV 89.6 gp120), sequence (Q73372 32-508): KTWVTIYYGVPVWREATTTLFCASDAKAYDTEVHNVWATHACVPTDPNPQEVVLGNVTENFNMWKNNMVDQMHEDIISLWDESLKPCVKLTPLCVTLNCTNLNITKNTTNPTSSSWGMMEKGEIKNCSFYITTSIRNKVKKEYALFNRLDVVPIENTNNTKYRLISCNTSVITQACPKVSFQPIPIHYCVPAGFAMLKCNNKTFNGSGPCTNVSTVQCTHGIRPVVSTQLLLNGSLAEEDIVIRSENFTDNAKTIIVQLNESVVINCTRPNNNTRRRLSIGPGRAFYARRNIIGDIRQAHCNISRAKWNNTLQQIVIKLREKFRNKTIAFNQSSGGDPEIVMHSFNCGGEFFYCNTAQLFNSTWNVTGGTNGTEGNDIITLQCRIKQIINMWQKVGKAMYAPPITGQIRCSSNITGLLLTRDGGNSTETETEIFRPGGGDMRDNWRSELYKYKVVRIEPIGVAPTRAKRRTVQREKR

HIV-1 Env 89.6 gp120 = HIV-1 Env 89.6 gp120 (Human immunodeficiency virus type 1 group M subtype B, UniProt Q73372); test: biochemical; type: binding, HIV-1 89.6
HIV-1 Env 89.6 gp120, sequence (Q73372 32-508): as above

cleaved HIV 89.6 gp140 = cleaved HIV 89.6 gp140 (Human immunodeficiency virus type 1 group M subtype B, UniProt Q73372); type: binding; details: no sCD4
cleaved HIV 89.6 gp140, sequence (Q73372 32-681): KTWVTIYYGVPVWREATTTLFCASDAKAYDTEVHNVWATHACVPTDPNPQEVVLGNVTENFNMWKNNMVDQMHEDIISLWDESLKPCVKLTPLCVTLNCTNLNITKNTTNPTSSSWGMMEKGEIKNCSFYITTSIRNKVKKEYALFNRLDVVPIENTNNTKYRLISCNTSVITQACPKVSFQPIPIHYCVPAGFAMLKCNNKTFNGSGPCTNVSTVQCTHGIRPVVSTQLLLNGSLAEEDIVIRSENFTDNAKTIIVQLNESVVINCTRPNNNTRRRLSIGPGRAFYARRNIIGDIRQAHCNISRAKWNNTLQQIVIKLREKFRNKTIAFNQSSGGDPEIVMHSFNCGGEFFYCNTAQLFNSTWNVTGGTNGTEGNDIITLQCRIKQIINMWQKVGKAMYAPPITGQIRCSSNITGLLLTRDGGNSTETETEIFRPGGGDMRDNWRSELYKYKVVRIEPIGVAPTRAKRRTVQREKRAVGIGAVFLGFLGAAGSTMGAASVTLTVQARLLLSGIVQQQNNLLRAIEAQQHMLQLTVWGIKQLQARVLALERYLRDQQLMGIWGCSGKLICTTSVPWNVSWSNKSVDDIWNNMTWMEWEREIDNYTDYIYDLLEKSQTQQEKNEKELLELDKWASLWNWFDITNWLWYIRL

HIV-1 89.6 gp120 = HIV-1 89.6 gp120 (Human immunodeficiency virus type 1 group M subtype B, UniProt Q73372); type: binding; details: absence of sCD4 or mAb A32, blot 29A lanes 3 and 4
HIV-1 89.6 gp120, sequence (Q73372 32-508): as the sequence (Q73372 32-508) above

BaL gp120 = test: BIACORE capture assay: peptide binding to BaL gp120; set-up: species or system HIV-1 BaL; details: CCR5-utilizing isolate
Method: Rectangular bars represent the surface of the sensor chip on which sCD4 or mAbs A32 or T8 were covalently immobilized. Soluble gp120 proteins were first captured on each of these surfaces and then DP178 or sDP178 peptides were injected and their binding interactions were monitored. […] Based on their molecular size (1:27), 2000 RU of immobilized gp120 would bind 74 RU of DP178 peptide. […] Arrows point to start of injection of gp120 and DP178. […] In FIG. 27C, specific binding signal (solid) is shown after subtraction of non-specific signal (broken line). […] 50 μg/ml of DP178 peptide was flowed at 30 μl/min over each of these surfaces after 2000 RU of 89.6 gp120 was bound (FIG. 27D). In FIG. 27E, these same surfaces were also used to monitor binding of scrDP178 (50 μg/ml). […] (FIG. 27F) Binding of DP178 and DP107 peptides to A32-gp120 complex. […] Data are a representative experiment of 3 performed. […] 50 μg/ml of DP178 peptide was flowed at 30 μl/min over each of these surfaces after RU of BaL gp120 was bound (FIG. 27G). These same surfaces were also used to monitor binding of scrDP178 (50 μg/ml) (FIG. 27H).
Surface Plasmon Resonance Biosensor Measurements.

[3] = test system: gp41-gp120-sCD4 complex (ADA gp41, 89.6 gp120); test: SPR binding of DP178 to gp41-gp120 and gp41-gp120-sCD4 complexes; set-up: species or system HIV; details: DP178 50 μg/ml
Method: FIGS. 17A and 17B show induction of HR-2 peptide binding to gp120-gp41 complex. […] Soluble 89.6 gp120 (100 μg/ml) or a gp120-CD4 mixture (gp120 pre-incubated with 0.3 mg/ml of CD4 for 30 min) was injected at 5 μl/min for 10 min over a sensor surface immobilized with ADA gp41. At the end of the injections, wash buffer (PBS) was allowed to flow until the surface was stable with no baseline drift. Roughly 300 RU of gp120 and 850 RU of gp120-CD4 formed stable complexes with the immobilized gp41 surface. […] Thus both surfaces were stable and had equivalent amount of associated gp120 or gp120-CD4.
In the preparation of HIV 89.6 gp140 envelope, there is uncleaved gp140, and cleaved gp140 components of gp120 and gp41. Thus, it is possible that HR-2 peptide could be induced to bind uncleaved gp140 and/or could be induced to bind to cleaved gp120 and gp41.

HIV 89.6 gp140 = HIV 89.6 gp140 (Human immunodeficiency virus type 1 group M subtype B, UniProt Q73372); type: binding; details: biotinylated peptide
HIV 89.6 gp140, sequence (Q73372 32-681): as the sequence (Q73372 32-681) above

enfuvirtide
binding to T8-gp140 surface (in words) [1]: near background binding | binding to immobilized gp41 (in words) (recombinant ADA gp41; SPR): bound well | Kd (recombinant ADA gp41; Scatchard plot, read-out: Keq (equilibrium binding constant)): 26.7 µM | binding to gp120 on T8 mab surface (in words) [2]: neither HR-2 peptide bound | Kd (HIV-1 Env 89.6 gp120): 0.82 µM | faster component of the dissociation phase (HIV-1 Env 89.6 gp120; biphasic binding): 0.023 s⁻¹ | slower component of the dissociation phase (HIV-1 Env 89.6 gp120; biphasic binding, predominant): 0.001 s⁻¹ | binding to gp120 bound to CD4 or A32 (in words) (HIV-1 Env 89.6 gp120; peptide 50 μg/ml): specific induction of DP178 binding; also recorded: Marked induction | binding to gp120 bound to mAb T8 (in words) (HIV-1 Env 89.6 gp120; peptide 50 μg/ml): no differences were observed | Rm (maximal binding at equilibrium) (cleaved HIV 89.6 gp140): 35 RU | binding to cleaved gp140 (in words) (cleaved HIV 89.6 gp140): Low level binding | band density of precipitated gp120 (HIV-1 89.6 gp120): 1.0 ODunits/mm^2 | binding to BaL gp120 complexed with A32, CD4 or T8 (in words) (BaL gp120): neither DP178 nor scrDP178 bound | binding to gp41-gp120(-sCD4) complex compared to gp41 (in words) [3]: upregulated; also recorded: higher binding | immunoprecipitation of gp41 and gp140 (in words) (HIV 89.6 gp140): constitutively immunoprecipitated
